Values of other authors in article PMC9366781 (ACS Omega, 2022).
Where two headings read alike, the source gives them in different places.

System: EGFR

Substance | affinity to the EGFR (same study as GE11 monomer) [nM] | affinity to the EGFR (different EGFR-positive cell lines (among these A431, MDA-MB-468, U87MG))
hEGF: endogenous EGFR ligand human epidermal growth factor, internal reference standard | 5.1 ± 0.9 | –
Tyr-His-Trp-Tyr-Gly-Tyr-Thr-Pro-Gln-Asn-Val-Ile [GE11] | – | more than 1 mM
